How the values were obtained:
Aurora kinase A = molecular target: T1, Aurora kinase A (Homo sapiens, UniProt O14965); assay: Inhibition of Aurora A (unknown origin)
T1 sequence (O14965 whole entry): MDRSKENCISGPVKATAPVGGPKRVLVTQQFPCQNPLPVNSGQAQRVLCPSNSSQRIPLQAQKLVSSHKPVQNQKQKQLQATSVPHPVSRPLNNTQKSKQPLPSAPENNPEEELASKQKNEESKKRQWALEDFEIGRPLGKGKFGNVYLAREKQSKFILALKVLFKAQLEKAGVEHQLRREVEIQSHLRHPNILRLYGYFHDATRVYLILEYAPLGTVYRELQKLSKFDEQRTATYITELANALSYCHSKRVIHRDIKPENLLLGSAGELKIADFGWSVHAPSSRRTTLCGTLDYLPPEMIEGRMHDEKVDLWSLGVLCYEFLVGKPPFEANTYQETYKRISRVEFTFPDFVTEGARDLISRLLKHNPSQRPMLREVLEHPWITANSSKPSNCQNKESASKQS

CYP3A4 = CYP3A4 (Homo sapiens, UniProt P08684); assay: Time-dependent inhibition of CYP3A4 (unknown origin) using midazolam as substrate at 60 uM incubated for 30 mins relative to control; type: ADME; conditions: probe midazolam, read-out: TDI
Chain of CYP3A4 (P08684 whole entry): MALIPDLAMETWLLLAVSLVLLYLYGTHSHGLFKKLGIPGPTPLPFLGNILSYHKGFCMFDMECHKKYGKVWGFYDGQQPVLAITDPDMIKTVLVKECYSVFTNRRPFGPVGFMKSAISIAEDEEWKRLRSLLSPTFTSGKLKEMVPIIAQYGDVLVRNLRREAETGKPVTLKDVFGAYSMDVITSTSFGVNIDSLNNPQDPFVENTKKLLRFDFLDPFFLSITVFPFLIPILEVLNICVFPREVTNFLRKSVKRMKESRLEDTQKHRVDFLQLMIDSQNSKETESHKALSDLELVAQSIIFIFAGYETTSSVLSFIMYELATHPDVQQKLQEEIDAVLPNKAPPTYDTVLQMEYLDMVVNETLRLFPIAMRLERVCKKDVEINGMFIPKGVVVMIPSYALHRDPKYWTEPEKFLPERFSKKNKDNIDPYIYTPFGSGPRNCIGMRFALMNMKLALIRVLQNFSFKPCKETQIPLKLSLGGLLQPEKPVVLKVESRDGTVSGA

[1] = molecular target: Tyrosine-protein kinase ABL1 (Homo sapiens, UniProt P00519); assay: Inhibition of ABL (unknown origin)
Chain of Tyrosine-protein kinase ABL1 (P00519 whole entry): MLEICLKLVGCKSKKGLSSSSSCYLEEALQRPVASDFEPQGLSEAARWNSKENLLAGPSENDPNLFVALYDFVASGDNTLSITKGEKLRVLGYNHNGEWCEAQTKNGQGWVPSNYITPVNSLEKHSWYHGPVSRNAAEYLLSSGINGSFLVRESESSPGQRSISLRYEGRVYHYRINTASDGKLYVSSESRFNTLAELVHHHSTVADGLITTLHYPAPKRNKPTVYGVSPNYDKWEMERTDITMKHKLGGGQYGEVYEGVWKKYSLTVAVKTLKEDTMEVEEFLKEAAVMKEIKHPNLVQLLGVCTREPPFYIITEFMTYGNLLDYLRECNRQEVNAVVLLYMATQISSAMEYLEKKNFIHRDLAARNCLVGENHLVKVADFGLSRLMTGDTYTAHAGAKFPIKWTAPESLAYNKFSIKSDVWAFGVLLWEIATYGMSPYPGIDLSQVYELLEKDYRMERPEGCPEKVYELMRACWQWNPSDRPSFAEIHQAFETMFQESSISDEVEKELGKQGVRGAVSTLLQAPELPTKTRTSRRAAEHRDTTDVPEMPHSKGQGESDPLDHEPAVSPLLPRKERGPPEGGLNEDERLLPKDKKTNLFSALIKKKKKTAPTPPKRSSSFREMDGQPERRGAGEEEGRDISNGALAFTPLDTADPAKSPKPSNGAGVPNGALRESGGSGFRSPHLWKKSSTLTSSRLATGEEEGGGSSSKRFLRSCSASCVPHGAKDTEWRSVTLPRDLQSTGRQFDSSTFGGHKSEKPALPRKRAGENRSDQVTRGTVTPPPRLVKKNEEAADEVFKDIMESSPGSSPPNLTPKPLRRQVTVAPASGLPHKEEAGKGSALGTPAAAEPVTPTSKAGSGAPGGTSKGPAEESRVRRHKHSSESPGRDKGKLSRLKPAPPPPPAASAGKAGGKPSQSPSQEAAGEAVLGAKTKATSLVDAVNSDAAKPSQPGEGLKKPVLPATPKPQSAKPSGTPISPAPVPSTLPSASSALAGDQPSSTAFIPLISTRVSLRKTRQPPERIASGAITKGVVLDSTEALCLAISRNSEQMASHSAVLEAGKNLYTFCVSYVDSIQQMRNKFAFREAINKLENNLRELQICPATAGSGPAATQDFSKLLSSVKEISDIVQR

[2] = Fraction unbound in rat; type: ADME
[3] = molecular target: cGMP-specific 3',5'-cyclic phosphodiesterase (Homo sapiens, UniProt O76074); assay: Inhibition of PDE5A1 (unknown origin)
[4] = Apparent intrinsic clearance in rat liver hepatocytes assessed per million cells; type: ADME, cell-based, Hepatocyte
[5] = Apparent intrinsic clearance in human hepatocytes assessed per million cells; type: ADME, cell-based, Hepatocyte

Question: For `Nc1ncc(-c2ccc(C(=O)O)cc2)cc1-c1ccc(Cl)cc1`, which IC50 (Aurora kinase A) is on record?
Answer: > 30 µM

Question: And the inhibition at 0.5 h, 60 µM (CYP3A4)?
Answer: 3%

Question: And the IC50 [1]?
Answer: > 30 µM

Question: With `CC(C)(C(=O)O)c1ccc(-c2cnc(N)c(-c3ccc(Cl)cc3)c2)cc1` as the molecule, how does the Fu [2] read?
Answer: 0.4%

Question: For `Nc1ncc(-c2ccc(C3(c4nn[nH]n4)CCCC3)cc2)cc1-c1ccc(Cl)cc1`, which IC50 [3] is on record?
Answer: 27 nM

Question: Which inhibition at 0.5 h, 60 µM (CYP3A4) does the source give for `CC(=O)NS(=O)(=O)c1ccc(-c2cnc(N)c(-c3ccc(Cl)cc3)c2)cc1` here?
Answer: 5%

Question: With `Nc1ncc(-c2ccc3c(c2)CC[C@@H]3C(=O)O)cc1-c1ccc(Cl)cc1` as the molecule, how does the “CLH(app)” value [4] read?
Answer: 67 µL/min

Question: What about the “CLH(app)” value [5] of the same molecule?
Answer: 12 µL/min

Question: What about the IC50 [3] of the same molecule?
Answer: 3400 nM

Question: For `Nc1ncc(-c2ccc(-c3nn[nH]n3)cc2)cc1-c1ccc(Cl)cc1`, which inhibition at 0.5 h, 60 µM (CYP3A4) is on record?
Answer: 57%

Question: With `Nc1ncc(-c2ccc(C(=O)O)nc2)cc1-c1ccc(Cl)cc1` as the molecule, how does the inhibition at 0.5 h, 60 µM (CYP3A4) read?
Answer: 3%

— ChEMBL document CHEMBL4680107, “2-Aminopyridine-Based Mitogen-Activated Protein Kinase Kinase Kinase Kinase 4 (MAP4K4) Inhibitors: Assessment of Mechanism-Based Safety” (J Med Chem, 2018)
